Data set [1] concerns 105 nt F30 Broccoli aptamer. In words: Broccoli aptamer folding / DFHBI fluorescence emission in vitro. In kind it is biochemical. The note with it: RNA cloaked 4 h with 100 mM PCA in water, no light. Here is the method: In this example, the ability of PCAs to control longer RNAs produced by transcription was tested. Photocontrolled aptamers have recently gained interest due to their potential for therapeutic and imaging applications, as exemplified by recent work by Langer and Kohane in which a 26nt nucleolin-binding aptamer for cancer targeting was reported (L. Li et al. Proc. Natl. Acad. Sci. 2014, 111, 17099-103, the disclosure of which is herein incorporated by reference; See also, M. C. Buff et al Nucleic Acids Res. 2009, 38, 2111-18; L. Qiu et al. J. Am. Chem. Soc. 2013, 135, 12952-55; A Heckel and G. Mayer J. Am. Chem. Soc. 2005, 12, 822-23; and A. Pinto et al. ACS Chem. Biol. 2012, 7, 360-66; the disclosure of which are herein incorporated by reference). […] Broccoli RNA folds into a compact tertiary structure, forming a binding site for the DFHBI dye, which results in a strong increase in fluorescence.
F-30 Broccoli DNA template (3 ng) (Table S1) was amplified by PCR (98° C. for 30 s; 30 times: 98° C. for 10 s, 61° C. for 30 s, 72° C. for 30 s; 72° C. for 5 min, 4° C. forever) using Phusion High-Fidelity PCR master Mix (NEB), and primers mix in 50 μL reaction, according to the NEB protocol. […] Fluorescent emission spectra were recorded on a Fluorolog 3-11 instrument (Jobin Yvon-SPEX), λex=450 nm at 25° C. […]

The next data set relates to 12 nt DNA. Description: Control incubation of analogous 12 nt DNA with PCA 1 (PAGE). The note with it: analogous 12 nt DNA incubated with PCA 1.
For data set [2], the system named is 34 nt hammerhead ribozyme RNA. In words: Hammerhead ribozyme cleavage of Cy5-labeled substrate (urea PAGE). In kind it is biochemical. The text has this: In this example, the ability of photocloaking to control the more complex function of a ribozyme RNA was examined. To form proper tertiary structure and initiate activity, RNA-cleaving ribozymes hybridize and bind metals (See Y Liu, T. J. Wilson, and D. M. J. Lilley Nat. Chem. Biol. 2017, 13, 508-13, the disclosure of which is herein incorporated by reference. Several examples of photocontrolled ribozymes have been reported previously (See S. G. Chaulk and A. M. MacMillan Nucleic Acids Res. 1998, 26, 3173-78; A. Nierth, M. Singer and A Jaschke Chem. Commun. (Camb). 2010, 46, 7975-77; D. D. Young and A. Dieters Bioorganic Med. Chem. Lett. 2006, 16, 2658-61; and S. G. Chaulk and A. M. MacMillan, 2007 cited supra; the disclosures of which are herein incorporated by reference), with the goal of studying ribozyme structure and folding. All prior studies, however, have been performed with modifications incorporated into RNAs during solid-phase synthesis. Thus, PCA 1 was tested whether it could be used to block a ribozyme in a single post-synthetic step, and subsequently phototrigger its activity. A 34 nt hammerhead ribozyme RNA (FIG. 18A; Seq. ID No. 5) was cloaked under standard conditions at room temperature and isolated from excess reagent and DMSO by precipitation. The cloaked ribozyme (200 nM) was then incubated with Cy5-labeled substrate (500 nM) in 50 mM Tris pH=6.0, 10 mM MgCl2 for 1 hour. The reaction was stopped by the addition of 8 M urea, 100 mM EDTA solution and then analyzed by urea PAGE (FIGS. 18B and 18C). […] The initial rates of substrate conversion were determined before and after cloaking (FIGS. 18D and 18E). […] After cloaking, the rate dropped 370-fold to 3.010^−3 min^−1, showing strong blocking of ribozyme function. […] Thus, ribozyme function can be robustly controlled by a direct photocloaking strategy.

A further data set relates to complementary DNA strand. Description: Thermal denaturation (melting curve) of RNA template 1 annealed to complementary DNA. The format is physicochemical. The note with it: duplex with complementary DNA, phosphate buffer pH=7.2, 100 mM NaCl, 300 nM. Here is the method:
Hybridization of untreated, cloaked, and uncloaked RNA was examined. Initial experiments measured the effect of photocloaking on thermal stability of a duplex. Untreated and cloaked RNA template 1 (Seq. ID No. 2) were annealed to its complementary DNA strand in phosphate buffer pH=7.2, 100 mM NaCl at 300 nM by heating the sample to 95° C. for 2 min and then cooling to room temperature. Melting curves were obtained by monitoring the absorbance at 260 nm of the nucleic acid solution while increasing the temperature at a rate of 1° C./min. Curves were smoothed by adjacent averaging.

Data set [3] deals with complementary fluorogenic DNA (Q-STAR) probes. Description: Nucleic acid-templated fluorogenic Q-STAR reaction (hybridization). The format is biochemical. As for the experimental part:
To further test the effect of cloaking on hybridization, a nucleic acid-templated reaction was employed with complementary fluorogenic DNA (Q-STAR) probes (R. M. Franzini and E. T. Kool J. Am. Chem. Soc. 2009, 131, 16021-23; and W. A. Velema and E. T. Kool J. Am. Chem. Soc. 2017, 139, 5405-11; the disclosures of which are herein incorporated by reference). RNA template (untreated, cloaked or photo-uncloaked) was dissolved in 70 mM Tris-Borate buffer pH=7.0, 10 mM MgCl2 to a concentration of 200 nM. To this was added QSTAR probe (200 nM; Seq. ID No. 3) and TPP probe (400 nM; Seq. ID No. 4) and the fluorescence was monitored overtime at 25° C. on a Fluorolog 3-11 instrument (Jobin Yvon-SPEX). λex=497 nm and λem=519 nm. Plots were smoothed by adjacent averaging. […] After the cloaked RNA was exposed to light for up to an hour and subjected to the Q-STAR hybridization probes, a strong restoration of signal (82% of original) was observed (FIG. 17B), consistent with uncloaking at relatively high efficiency.

The test system of data set [4] is F30-2xd Broccoli aptamer RNA in HeLa cells. In words: Epifluorescence microscopy of HeLa cells transfected with 237 nt Broccoli aptamer RNA. The format is cell-based, human. Here is the method:
In this example, the capability to use this photocloaking strategy to switch on RNA function in cells was assessed by transfecting a cloaked Broccoli RNA construct into human cells and then exposing cells to light was explored. For these experiments, a larger 237 nt RNA (Seq. ID No. 7) construct encoding two dimeric Broccoli aptamers was prepared. This construct is known to be stable in the intracellular medium (G. S. Filonoy et al. Chem. Biol. 2015, 22 (5), 649-60, the disclosure of which is herein incorporated by reference). Accordingly, F30-2xdB_2 DNA (100 pmol; Seq. ID No. 8) was 5′ adenylated using Mth Ligase (100 pmol, NEB) according to NEB's protocol. Mini Elute columns, and PNI Buffer (Qiagen) were used to clean up double stranded DNA samples according to manufacturer's instructions. ssDNAs F30-2xdB_2 (40 pmol) and F30-2xdB_1 (20 pmol) were ligated according to NEB description, using Thermostable 5′ App DNA/RNA Ligase (40 pmol, NEB). Ligated DNA was purified on DNA Clean&Concentrator 5 columns (Zymo Research) using Zymo's protocol. F-30 2xd Broccoli ssDNA template (3 ng) was amplified by PCR (98° C. for 30 s; 30 times: 98° C. for 10 s, 60° C. for 30 s, 72° C. for 30 s; 72° C. for 5 min, 4° C. forever) using Phusion High-Fidelity PCR master Mix (NEB), and primers mix in 50 μL reaction, according to the NEB protocol. […]

Consider `COc1cc(COC(=O)n2ccnc2Cl)c([N+](=O)[O-])cc1OCCN(C)C` [PCA 1, 4-(2-(dimethylamino)ethoxy)-5-methoxy-2-nitrobenzyl 2-chloro-1H-imidazole-1-carboxylate], for which the “Broccoli RNA fluorescence with DFHBI” value in data set [1] is recorded as “strong suppression of fluorescence”. In the data set with 12 nt DNA, the “reaction with DNA” value is less than 5%. Besides, the “drop of rate vs mock-treated ribozyme” value in data set [2] (after cloaking with PCA 1) is 370 fold. For the same compound, the “initial rate of substrate conversion” value in data set [2] (cloaked RNA exposed to light) stood at 1.1 min⁻¹. Further, the “ribozyme function after uncloaking” value in data set [2] (cloaked with PCA 1, after 365 nm light exposure) was “almost completely restored”. Also, the “ribozyme activity (substrate cleavage)” value in data set [2] (ribozyme cloaked with PCA 1, 200 nM, substrate 500 nM, 1 hour) was “almost complete abrogation of activity”.

For the compound “cloaked RNA template 1: RNA template 1 (Seq. ID No. 2, 5′ GCU CCC CAG CUU UCG C) acylated at 2′-OH with photocloaking groups (GCUCCCCAGCUUUCGC; RNA, backbone not given here; 2'-OH acylated with photocloaking groups, further chemistry not fully specified)”, in the data set with complementary DNA strand, the “difference in melting temperature vs untreated RNA strand” value was determined as 10 °C. Besides, the restoration of signal in data set [3] (cloaked RNA exposed to light for up to an hour) was 82 % of original. Besides, in data set [3] (cloaked RNA template 200 nM, no light, 25° C.), the “fluorogenic templated reaction signal” value is 9 % of untreated RNA.

On to `COc1cc(C(C)OC(=O)n2ccnc2Cl)c([N+](=O)[O-])cc1OCCN(C)C` (stereo not drawn) [PCA 2, 1-(4-(2-(dimethylamino)ethoxy)-5-methoxy-2-nitrophenyl)ethyl 2-chloro-1H-imidazole-1-carboxylate], for which the “Broccoli RNA fluorescence with DFHBI” value in data set [1] was “very dim fluorescence”. Moreover, the “fluorescence signal in cells” value in data set [4] (237 nt RNA cloaked with PCA 2, HeLa cells, subsequent light exposure (30 minutes)) is reported as “emergence of a visible green fluorescence signal”; in data set [4] (237 nt RNA cloaked with PCA 2, transfected in HeLa cells, no light), “no measurable signal above background”.

The values above are taken from US11572557B2, “Photoreversible acylation reagents” (The Board of Trustees of the Leland Stanford Junior …, priority 2018, dated 2023).
